Assay results reported in patent US5734012A, “Cyclic motilin-like polypeptides with gastrointestinal motor stimulating activity” (Ohmeda Pharmaceutical Products Division Inc., priority 1996, dated 1998).
Read-outs that look alike come from different tables or passages of the source. Positions of bridges follow the written chain, without caps; N, C: chain ends. Non-standard residues stand in square brackets, D forms with d. Residues, ends and D or L forms follow the SMILES beside them. *: point of attachment. X1 = C[N+](C)(C)[C@@H](Cc1ccccc1)C(=O)*; NMeF = CN[C@@H](Cc1ccccc1)C(=O)O; dNMeF = CN[C@H](Cc1ccccc1)C(=O)O

Assays:
[1] = In vitro stability testing in 2% hog kidney homogenate; type: in vitro ADME; conditions: for half-life at 0.5 mg/ml: pig, kidney or brush border membranes
Protocol: Like most small linear polypeptides, motilin is believed to be metabolized by the brush border cells of the kidney. Therefore, kidney homogenate was chosen as the model system for assessing the relative in vivo biostability of the peptides of this invention. All peptides to be studied were incubated in hog kidney (Pel Freeze, Inc., Rogers, Ark.) (2% w/v; final volume=4 mls; buffer=HEPES pH 7.0) at 25° C. […] In order to determine suitable incubation times and sampling intervals, two experiments were conducted with each polypeptide. The first run served as a rough estimate of peptide stability. All sampling was performed in duplicate. Sample volume was 180 μl. Sample clean-up was performed by addition of 20 μl of 100% TCA (final volume=200 μl; final TCA concentration=10%). The sample was vortexed from 5 to 10 seconds to ensure equilibration, then centrifuged to spin out the precipitated proteins. Analysis was carried out on a Waters HPLC system with autoinjector, a 5 μVydac C-18 analytical column, and a Waters 481 UV detector set at 214 nm. Injection volume was 80 μl. Initial solvent conditions were 20% acetonitrile / 80% (0.1%) TFA in Milli-Q water with a 35 minute gradient running to 63% acetonitrile / 37% (0.1%) TFA at 1 ml/min. Polypeptide substrate and metabolite peaks were ratioed to the internal standard and the duplicate sample ratios were averaged. The average ratio for the peptide substrate was expressed as a percentage and plotted versus time. First-order kinetics was assumed for data treatment. The rate of disappearance of the substrate was calculated using the Enzfitter program (Biosoft). Relative half-lives were determined from the relationship: […]

[2] = molecular target: T1, motilin receptor (Oryctolagus cuniculus, UniProt G1T803); test: Motilin receptor binding affinity (displacement of [125I-Tyr7,Nle13]motilin(porcine)); parameters: species or system rabbit
T1 construct: from tissue; host or cells: rabbit antral smooth muscle membranes
T1 sequence (G1T803 1-400): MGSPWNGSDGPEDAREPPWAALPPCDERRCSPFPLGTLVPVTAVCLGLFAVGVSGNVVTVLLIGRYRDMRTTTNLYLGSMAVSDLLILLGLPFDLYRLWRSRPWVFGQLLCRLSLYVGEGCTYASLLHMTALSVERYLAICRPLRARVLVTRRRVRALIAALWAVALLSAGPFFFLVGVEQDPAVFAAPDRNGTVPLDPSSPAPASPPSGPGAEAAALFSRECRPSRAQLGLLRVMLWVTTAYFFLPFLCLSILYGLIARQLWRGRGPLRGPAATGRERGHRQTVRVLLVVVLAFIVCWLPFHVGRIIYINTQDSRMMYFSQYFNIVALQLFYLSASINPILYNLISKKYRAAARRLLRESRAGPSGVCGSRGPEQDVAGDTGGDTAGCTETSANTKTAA
Protocol: The motilin receptor binding affinity of the peptides of this invention was determined by using the general procedure of Bormans, Peeters and Vantrappen, Regul. […] Fitting was performed using the iterative least-squares procedure of the SAS-software package (SAS Institute, Inc., Cary, N.C., USA).

[3] = molecular target: rabbit duodenal smooth muscle strip (Oryctolagus cuniculus, UniProt G1T803); test: Rabbit duodenal smooth muscle strip tissue bath assay (contractility); type: cell-based; conditions: negative logarithm of dose giving 50% of maximal response to motilin; isotonic contraction of rabbit duodenum segments
Sequence of rabbit duodenal smooth muscle strip (G1T803 1-400): as above
Protocol: The experimental protocol consisted of an equilibration period of 1 hour; a challenge with 10^-4 M acetylcholine followed by a wash-out period; a cumulative dose-response curve of a compound with, at the end, the addition of 10^-7 M motilin; and finally 10^-4 M acetylcholine. If the final response to 10^-4 M acetylcholine differed by more than 5% from the initial response, the results were discarded.

[4] = negative logarithm of concentration displacing 50% of [125I-Tyr7,Nle13]motilin(porcine) bound to rabbit antral smooth muscle membranes, read-out: pIC50 (converted)

| IC50 [2, 4] | pEC50 [3] | SMILES | other results |
| --- | --- | --- | --- |
| – | – | CC[C@H](C)[C@H](NC(=O)[C@@H]1CCCN1C(=O)[C@@H](NC(=O)[C@@H](N)Cc1ccccc1)C(C)C)C(=O)N[C@@H](Cc1ccccc1)C(=O)N[C@H](C(=O)N[C@@H](Cc1ccc(O)cc1)C(=O)NCC(=O)N[C@@H](CCC(=O)O)C(=O)N[C@@H](CC(C)C)C(=O)N[C@@H](CCC(N)=O)C(=O)N[C@@H](CCCN=C(N)N)C(=O)N[C@@H](CC(C)C)C(=O)N[C@@H](CCC(N)=O)C(=O)N[C@@H](CCC(=O)O)C(=O)N[C@@H](CCCCN)C(=O)N[C@@H](CCC(=O)O)C(=O)N[C@@H](CCCN=C(N)N)C(=O)N[C@@H](CC(N)=O)C(=O)N[C@@H](CCCCN)C(=O)NCC(=O)N[C@@H](CCC(N)=O)C(=O)O)[C@@H](C)O [SEQ ID NO:3, [Leu^13]pMOT(1-22), reference compound] (H-FVPIFTYGELQRLQEKERNKGQ-OH) | half-life at 0.5 mg/ml ([1]; 2% w/v hog kidney homogenate, HEPES pH 7.0, 25° C., 0.5 mg/ml substrate, first-order kinetics, read-out: T1/2): 30.2 min |
| 1.51 nM | 7.77 | CC[C@H](C)[C@H](NC(=O)[C@@H]1CCCN1C(=O)[C@@H](NC(=O)[C@@H](N)Cc1ccccc1)C(C)C)C(=O)N[C@@H](Cc1ccccc1)C(=O)N[C@H](C(=O)N[C@@H](Cc1ccc(O)cc1)C(=O)NCC(=O)N[C@@H](CCC(=O)O)C(=O)N[C@H]1CC(=O)NCCCC[C@@H](C(N)=O)NC(=O)[C@H](CC(C)C)NC(=O)[C@H](CCCNC(=N)N)NC(=O)[C@H](CCC(N)=O)NC1=O)[C@@H](C)O [SEQ ID NO:6, cyclo^10,14 [Asp^10, Leu^13, Lys^14]pMOT(1-14)] (H-FVPIFTYGEDQRLK-NH2; lactam 10-14) | – |
| 1.1 nM | 7.69 | CC[C@H](C)[C@H](NC(=O)[C@@H]1CCCN1C(=O)[C@@H](NC(=O)[C@H](Cc1ccccc1)NC)C(C)C)C(=O)N[C@@H](Cc1ccccc1)C(=O)N[C@H](C(=O)N[C@@H](Cc1ccc(O)cc1)C(=O)NCC(=O)N[C@@H](CCC(=O)O)C(=O)N[C@H]1CC(=O)NCCCC[C@@H](C(=O)N[C@@H](CCCCN)C(N)=O)NC(=O)[C@H](CC(C)C)NC(=O)[C@H](CCCNC(=N)N)NC(=O)[C@H](C)NC1=O)[C@@H](C)O [SEQ ID NO:8, cyclo^10,14 [N-MePhe^1,Asp^10,Ala^11,Leu^13,Lys^14,Lys^15]pMOT(1-15) amide] (H-[NMeF]VPIFTYGEDARLKK-NH2; lactam 10-14) | – |
| 0.631 nM | 7.96 | CC[C@H](C)[C@H](NC(=O)[C@@H]1CCCN1C(=O)[C@@H](NC(=O)[C@H](Cc1ccccc1)NC)C(C)C)C(=O)N[C@@H](Cc1ccccc1)C(=O)N[C@H](C(=O)N[C@@H](Cc1ccc(O)cc1)C(=O)NCC(=O)N[C@@H](CCC(=O)O)C(=O)N[C@H]1CCC(=O)NCCCC[C@@H](C(=O)N[C@@H](CCCCN)C(N)=O)NC(=O)[C@H](CC(C)C)NC(=O)[C@H](CCCNC(=N)N)NC(=O)[C@H](C)NC1=O)[C@@H](C)O [SEQ ID NO:10, cyclo^10,14 [N-MePhe^1,Glu^10,Ala^11,Leu^13,Lys^14,Lys^15]pMOT(1-15) amide] (H-[NMeF]VPIFTYGEEARLKK-NH2; lactam 10-14) | half-life at 0.5 mg/ml ([1]; pH 7): 21 min |
| 1.23 nM | 7.89 | CC[C@H](C)[C@H](NC(=O)[C@@H]1CCCN1C(=O)[C@@H](NC(=O)[C@H](Cc1ccccc1)[N+](C)(C)C)C(C)C)C(=O)N[C@@H](Cc1ccccc1)C(=O)N[C@H](C(=O)N[C@@H](Cc1ccc(O)cc1)C(=O)NCC(=O)N[C@@H](CCC(=O)O)C(=O)N[C@H]1CC(=O)NCCCC[C@@H](C(=O)N[C@H](CCCCN)C(N)=O)NC(=O)[C@H](CC(C)C)NC(=O)[C@H](CCCNC(=N)N)NC(=O)[C@H](C)NC1=O)[C@@H](C)O [SEQ ID NO:11, cyclo^10,14 [Me3 N^+ Phe^1,Asp^10,Ala^11,Leu^13,Lys^14,D-Lys^15]pMOT(1-15) amide] (X1-VPIFTYGEDARLK[dK]-NH2; lactam 9-13) | half-life at 0.5 mg/ml ([1]; pH 7): 437 min |
| 5.5 nM | 6.87 | CC[C@H](C)[C@H](NC(=O)[C@@H]1CCCN1C(=O)[C@@H](NC(=O)[C@@H](Cc1ccccc1)NC)C(C)C)C(=O)N[C@@H](Cc1ccccc1)C(=O)N[C@H](C(=O)N[C@@H](Cc1ccc(O)cc1)C(=O)NCC(=O)N[C@@H](CCC(=O)O)C(=O)N[C@H]1CCC(=O)NCCCC[C@@H](C(N)=O)NC(=O)[C@H](CC(C)C)NC(=O)[C@H](CCCNC(=N)N)NC(=O)[C@H](CCC(N)=O)NC1=O)[C@@H](C)O [SEQ ID NO:13, cyclo^10,14 [N-Me-D-Phe^1,Glu^10,Leu^13,Lys^14 pMOT(1-14) amide] (H-[dNMeF]VPIFTYGEEQRLK-NH2; lactam 10-14) | – |
| – | 7.38 | CC[C@H](C)[C@H](NC(=O)[C@@H]1CCCN1C(=O)[C@@H](NC(=O)[C@H](Cc1ccccc1)[N+](C)(C)C)C(C)C)C(=O)N[C@@H](Cc1ccccc1)C(=O)N[C@H](C(=O)N[C@@H](Cc1ccc(O)cc1)C(=O)NCC(=O)N[C@@H](CCC(=O)O)C(=O)N[C@H]1CCC(=O)NCCCC[C@@H](C(N)=O)NC(=O)[C@H](CC(C)C)NC(=O)[C@H](CCCNC(=N)N)NC(=O)[C@H](CCC(N)=O)NC1=O)[C@@H](C)O [SEQ ID NO:14, cyclo^10,14 [Me3 N^+ Phe^1,Glu^10,Leu^13,Lys^14]pMOT(1-14) amide] (X1-VPIFTYGEEQRLK-NH2; lactam 9-13) | T1/2 ([1]; pH 7): > 200 min |
| 11.5 nM | 7.89 | CC[C@H](C)[C@H](NC(=O)[C@@H]1CCCN1C(=O)[C@@H](NC(=O)[C@H](Cc1ccccc1)NC)C(C)C)C(=O)N[C@@H](Cc1ccccc1)C(=O)N[C@H](C(=O)N[C@@H](Cc1ccc(O)cc1)C(=O)NCC(=O)N[C@@H](CCC(=O)O)C(=O)N[C@H]1CC(=O)NCCCC[C@@H](C(N)=O)NC(=O)[C@H](CC(C)C)NC(=O)[C@@H](CCCNC(=N)N)NC(=O)[C@H](C)NC1=O)[C@@H](C)O [SEQ ID NO:23, cyclo^10,14 [N-MePhe^1,Asp^10,Ala^11,D-Arg^12,Leu^13,Lys^14]pMOT(1-14) amide] (H-[NMeF]VPIFTYGEDA[dR]LK-NH2; lactam 10-14) | – |
| 12.6 nM | 7.02 | CC[C@H](C)[C@H](NC(=O)[C@@H]1CCCN1C(=O)[C@@H](NC(=O)[C@H](Cc1ccccc1)[N+](C)(C)C)C(C)C)C(=O)N[C@@H](Cc1ccccc1)C(=O)N[C@H](C(=O)N[C@@H](Cc1ccc(O)cc1)C(=O)NCC(=O)N[C@@H](CCC(=O)O)C(=O)N[C@H]1CC(=O)NCCCC[C@@H](C(N)=O)NC(=O)[C@H](CC(C)C)NC(=O)[C@@H](CCCNC(=N)N)NC(=O)[C@H](C)NC1=O)[C@@H](C)O [SEQ ID NO:24, cyclo^10,14 [Me3 N^+ Phe^1,Asp^10,Ala^11,D-Arg^12,Leu^13,Lys^14]pMOT(1-14) amide] (X1-VPIFTYGEDA[dR]LK-NH2; lactam 9-13) | – |
| – | – | CC[C@H](C)[C@H](NC(=O)[C@@H]1CCCN1C(=O)[C@@H](NC(=O)[C@@H](N)Cc1ccccc1)C(C)C)C(=O)N[C@@H](Cc1ccccc1)C(=O)N[C@H](C(=O)N[C@@H](Cc1ccc(O)cc1)C(=O)NCC(=O)N[C@@H](CCC(=O)O)C(=O)N[C@@H](CC(C)C)C(=O)N[C@@H](CCC(N)=O)C(=O)N[C@@H](CCCNC(=N)N)C(=O)N[C@@H](CC(C)C)C(=O)N[C@@H](CCC(N)=O)C(=O)O)[C@@H](C)O [SEQ ID NO:27, [Leu^13]pMOT(1-14), reference compound] (H-FVPIFTYGELQRLQ-OH; N-terminus and C-terminus assumed) | half-life at 0.5 mg/ml ([1]; pH 7): 7.5 min |

| SMILES | IC50 [2, 4] | pEC50 [3] | other results |
| --- | --- | --- | --- |
| CC[C@H](C)[C@H](NC(=O)[C@@H]1CCCN1C(=O)[C@@H](NC(=O)[C@H](Cc1ccccc1)NC)C(C)C)C(=O)N[C@@H](Cc1ccccc1)C(=O)N[C@H](C(=O)N[C@@H](Cc1ccc(O)cc1)C(=O)NCC(=O)N[C@@H](CCC(=O)O)C(=O)N[C@H]1CC(=O)NCCCC[C@@H](C(=O)N[C@H](CCCCN)C(N)=O)NC(=O)[C@H](CC(C)C)NC(=O)[C@H](CCCNC(=N)N)NC(=O)[C@H](C)NC1=O)[C@@H](C)O [SEQ ID NO:9, cyclo^10,14 [N-MePhe^1,Asp^10,Ala^11,Leu^13,Lys^14,D-Lys^15]pMOT(1-15) amide] (H-[NMeF]VPIFTYGEDARLK[dK]-NH2; lactam 10-14) | – | 7.89 | IC50 [2]: 0.661 nM |
